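48-hour exposure; five concentrations; linearly interpolated endpoints. Here, GI50 denotes the concentration required for 50% inhibition of growth.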 Active and inactive are the calls of the source. Rule as the data show it: active = GI50 up to about 1.1 µM and inactive = higher.
Legend:
Assay in all cases: growth of human tumour cells (NCI), 48 h
CCRF-CEM = system: CCRF-CEM
HCC 2998 = system: HCC 2998
HCT-15 = system: HCT-15
HL-60 = system: HL-60
KM12 = system: KM12
MDA-MB-435 = system: MDA-MB-435
NCI-H226 = system: NCI-H226
NCI-H522 = system: NCI-H522
NCI/ADR-RES = system: NCI/ADR-RES
OVCAR-3 = system: OVCAR-3
OVCAR-4 = system: OVCAR-4
OVCAR-5 = system: OVCAR-5
RXF 393 = system: RXF 393
SF-295 = system: SF-295
SF-539 = system: SF-539
SK-MEL-5 = system: SK-MEL-5
SK-OV-3 = system: SK-OV-3
SN12C = system: SN12C
SNB-75 = system: SNB-75
UACC-257 = system: UACC-257

| SMILES | GI50 (CCRF-CEM) | GI50 (HCC 2998) | GI50 (HCT-15) [µM] | GI50 (HL-60) | GI50 (KM12) | GI50 (MDA-MB-435) | GI50 (NCI-H226) | GI50 (NCI-H522) | GI50 (NCI/ADR-RES) | GI50 (OVCAR-3) | GI50 (OVCAR-4) | GI50 (OVCAR-5) | GI50 (RXF 393) | GI50 (SF-295) | GI50 (SF-539) | GI50 (SK-MEL-5) | GI50 (SK-OV-3) | GI50 (SN12C) | GI50 (SNB-75) | GI50 (UACC-257) |
| --- | --- | --- | --- | --- | --- | --- | --- | --- | --- | --- | --- | --- | --- | --- | --- | --- | --- | --- | --- | --- |
| COC(=O)c1cc2c(n1S(=O)(=O)c1ccc(C)cc1)C(=O)C(=O)c1[nH]cc(C(=O)OCc3ccccc3)c1-2 | 0.0873 µM (active) | 0.218 µM (active) | 0.0673 | 0.0289 µM (active) | 0.231 µM (active) | < 0.015 µM (active) | 0.199 µM (active) | 0.094 µM (active) | 0.583 µM (active) | < 0.0141 µM (active) | 0.209 µM (active) | 0.575 µM (active) | 0.0973 µM (active) | 0.12 µM (active) | 0.136 µM (active) | 0.0237 µM (active) | 0.871 µM (active) | 0.08 µM (active) | 0.147 µM (active) | 0.0322 µM (active) |
| CCCCCCNCCCNc1c2ccccc2nc2cccc([N+](=O)[O-])c12 | 0.0229 µM (active) | 0.00665 µM (active) | 0.0615 | 0.0151 µM (active) | 0.0127 µM (active) | 0.0103 µM (active) | 0.0547 µM (active) | 0.0121 µM (active) | 0.33 µM (active) | 0.0171 µM (active) | 0.0147 µM (active) | 0.0315 µM (active) | 0.0148 µM (active) | 0.0188 µM (active) | 0.116 µM (active) | 0.0103 µM (active) | 0.051 µM (active) | 0.0173 µM (active) | 0.0485 µM (active) | 0.101 µM (active) |
| Cn1c(-c2cccs2)cc(-c2ccccc2)c1-c1cccs1 | > 100 µM (inactive) | > 100 µM (inactive) | > 100 | 68.7 µM (inactive) | 74 µM (inactive) | > 100 µM (inactive) | 45.4 µM (inactive) | 50.8 µM (inactive) | > 100 µM (inactive) | 20.4 µM (inactive) | 74.3 µM (inactive) | 88.5 µM (inactive) | > 100 µM (inactive) | 17 µM (inactive) | 43.8 µM (inactive) | 18.6 µM (inactive) | 36.1 µM (inactive) | > 100 µM (inactive) | > 100 µM (inactive) | 48.2 µM (inactive) |
| CC(C)=CC(=O)c1[nH]c2ccccc2c1CC(=O)NCCc1c[nH]cn1 | > 100 µM (inactive) | > 100 µM (inactive) | > 100 | > 100 µM (inactive) | > 100 µM (inactive) | > 100 µM (inactive) | > 100 µM (inactive) | > 100 µM (inactive) | > 100 µM (inactive) | > 100 µM (inactive) | > 100 µM (inactive) | > 100 µM (inactive) | > 100 µM (inactive) | > 100 µM (inactive) | > 100 µM (inactive) | > 100 µM (inactive) | > 100 µM (inactive) | > 100 µM (inactive) | > 100 µM (inactive) | > 100 µM (inactive) |
| COC(=O)c1ccccc1C1CN=NC12Cc1c(ccc3c1CCC3)C2=O (stereo not given) | 49.5 µM (inactive) | > 100 µM (inactive) | 41.5 | 23.4 µM (inactive) | 38.4 µM (inactive) | 23.9 µM (inactive) | 41.5 µM (inactive) | 0.635 µM (active) | 31.1 µM (inactive) | 96.2 µM (inactive) | 45.2 µM (inactive) | 84.3 µM (inactive) | 48.6 µM (inactive) | 47.3 µM (inactive) | > 100 µM (inactive) | 25.4 µM (inactive) | > 100 µM (inactive) | 95.3 µM (inactive) | 51.8 µM (inactive) | 15.7 µM (inactive) |
| O=c1[nH]c(=O)n(C2OC(CO)C(O)C(O)C2O)cc1F (stereo not given) | > 100 µM (inactive) | > 100 µM (inactive) | > 100 | > 64.4 µM (inactive) | > 100 µM (inactive) | > 100 µM (inactive) | > 100 µM (inactive) | > 100 µM (inactive) | > 100 µM (inactive) | > 100 µM (inactive) | > 100 µM (inactive) | > 100 µM (inactive) | > 76.2 µM (inactive) | > 100 µM (inactive) | > 100 µM (inactive) | > 100 µM (inactive) | > 100 µM (inactive) | > 100 µM (inactive) | > 88.5 µM (inactive) | > 100 µM (inactive) |
| COc1ccc(CCCCNCc2cccc(CNCCCCc3ccc(OC)cc3)c2)cc1 | 1.67 µM (inactive) | 0.308 µM (active) | 1.77 | 1.77 µM (inactive) | 1.77 µM (inactive) | 1.79 µM (inactive) | 0.385 µM (active) | 1.88 µM (inactive) | 1.8 µM (inactive) | 1.88 µM (inactive) | 2.03 µM (inactive) | 2.09 µM (inactive) | 1.64 µM (inactive) | 1.93 µM (inactive) | 1.96 µM (inactive) | 1.66 µM (inactive) | 2.08 µM (inactive) | 2.04 µM (inactive) | 1.76 µM (inactive) | 2.59 µM (inactive) |
| O=C(O)CC1NC(/C(=C/c2ccccc2)NC(=O)c2ccccc2)OC1=O (stereo not given) | 22.6 µM (inactive) | 37.9 µM (inactive) | 31 | 11.6 µM (inactive) | 17.4 µM (inactive) | 24.6 µM (inactive) | 21.8 µM (inactive) | 16.5 µM (inactive) | 21.7 µM (inactive) | 20.6 µM (inactive) | 51.1 µM (inactive) | 76 µM (inactive) | 34.5 µM (inactive) | 38.1 µM (inactive) | 21 µM (inactive) | 16.4 µM (inactive) | 55.3 µM (inactive) | 43.3 µM (inactive) | 29 µM (inactive) | > 100 µM (inactive) |
| COc1cc2cc(C(=O)N3CC(CCl)c4ccc([N+](C)(C)Cc5ccccc5[N+](=O)[O-])cc43)[nH]c2c(OC)c1OC (stereo not given) | 0.966 µM (active) | 1.27 µM (inactive) | 2.14 | 2.77 µM (inactive) | 2.24 µM (inactive) | 1.82 µM (inactive) | 1.48 µM (inactive) | 0.198 µM (active) | 1.76 µM (inactive) | 2.94 µM (inactive) | 2.41 µM (inactive) | 2.66 µM (inactive) | 0.652 µM (active) | 1.47 µM (inactive) | 1.63 µM (inactive) | 0.875 µM (active) | 4.51 µM (inactive) | 4.05 µM (inactive) | 4.09 µM (inactive) | 1.66 µM (inactive) |
| COc1ccc2nc3ccc(OC)cc3c([S+]([O-])Cc3ccc([N+](=O)[O-])cc3)c2c1 (stereo not given) | 2.11 µM (inactive) | 17.5 µM (inactive) | 3.19 | 1.75 µM (inactive) | 18.4 µM (inactive) | 8.07 µM (inactive) | 22.9 µM (inactive) | 1.73 µM (inactive) | 21.2 µM (inactive) | 5.47 µM (inactive) | 9.51 µM (inactive) | 12.9 µM (inactive) | 5.04 µM (inactive) | 20.6 µM (inactive) | 2.81 µM (inactive) | 16.7 µM (inactive) | 21.1 µM (inactive) | 3.65 µM (inactive) | 19.3 µM (inactive) | 3.9 µM (inactive) |
| O=c1oc2ccccc2cc1-c1nnc(-c2ccccc2)s1 | 40.3 µM (inactive) | 12 µM (inactive) | 6.73 | 0.0279 µM (active) | 4.61 µM (inactive) | 1.65 µM (inactive) | > 56 µM (inactive) | 13.7 µM (inactive) | 12.1 µM (inactive) | 14.5 µM (inactive) | > 68.2 µM (inactive) | > 100 µM (inactive) | 17.1 µM (inactive) | 28.2 µM (inactive) | 14.5 µM (inactive) | > 71.3 µM (inactive) | 48.6 µM (inactive) | 60.5 µM (inactive) | 15.5 µM (inactive) | > 100 µM (inactive) |
| O=C(Nc1nccs1)NS(=O)(=O)n1cnc2ccccc21 | > 100 µM (inactive) | > 100 µM (inactive) | > 100 | > 100 µM (inactive) | > 100 µM (inactive) | > 100 µM (inactive) | > 100 µM (inactive) | > 100 µM (inactive) | > 100 µM (inactive) | > 100 µM (inactive) | > 100 µM (inactive) | > 100 µM (inactive) | > 100 µM (inactive) | > 100 µM (inactive) | > 100 µM (inactive) | > 100 µM (inactive) | > 100 µM (inactive) | > 100 µM (inactive) | > 100 µM (inactive) | > 100 µM (inactive) |
| COc1ccc(/N=N/c2ccc3oc(=O)c(C(=O)Nc4ccc(OC)cc4)cc3c2)cc1 | 4.89 µM (inactive) | 19.4 µM (inactive) | 6.79 | 5.69 µM (inactive) | 13.8 µM (inactive) | 16.7 µM (inactive) | 13.1 µM (inactive) | 26.5 µM (inactive) | 16.2 µM (inactive) | 19.2 µM (inactive) | 13.4 µM (inactive) | 17.8 µM (inactive) | 27 µM (inactive) | 21.3 µM (inactive) | 6.95 µM (inactive) | 14.9 µM (inactive) | 19.5 µM (inactive) | 14 µM (inactive) | 16.2 µM (inactive) | 23.8 µM (inactive) |
| [O-][n+]1ccc(NO)c2ccccc21 | 0.492 µM (active) | 0.253 µM (active) | 1.75 | 0.923 µM (active) | 0.984 µM (active) | 4.6 µM (inactive) | 1.87 µM (inactive) | 1.51 µM (inactive) | 1.54 µM (inactive) | 2.3 µM (inactive) | 1.9 µM (inactive) | 3.73 µM (inactive) | 0.592 µM (active) | 0.374 µM (active) | 0.679 µM (active) | 1.25 µM (inactive) | 0.518 µM (active) | 1.38 µM (inactive) | 0.516 µM (active) | 7.36 µM (inactive) |

— ChEMBL document CHEMBL1201862, “PubChem BioAssay data set” (2004)
